Results reported in ChEMBL document CHEMBL3244053, “Structural modification study of bis(substituted aminoalkylamino)anthraquinones. An evaluation of the relationship of the [2-[(2-hydroxyethyl)amino]ethyl]amino side chain with antineoplastic activity” (1979).
Calls of active or inactive are those of the source. No cut-off for these calls is given here.

Assays:
B16 [1] = experiment: Antineoplastic activity against mouse B16 cells allografted in BDF1 mouse assessed as survival at 0.25 mg/kg qd for 9 days; type: functional, organism-based; set-up: dose 0.25 mg/kg
B16 [2] = experiment: Antineoplastic activity against mouse B16 cells allografted in BDF1 mouse assessed as survival at 0.5 mg/kg qd for 9 days; type: functional, organism-based; set-up: dose 0.5 mg/kg
L1210 [3] = experiment: Antineoplastic activity against mouse L1210 cells allografted in CDF1 mouse assessed as survival at 10.8 mg/kg qd for 9 days; type: functional, organism-based; set-up: dose 10.8 mg/kg
Colon 26 [4] = experiment: Antineoplastic activity against mouse Colon 26 cells allografted in CDF1 mouse at 0.39 mg/kg qd for 9 days relative to control; type: functional
Colon 26 [5] = experiment: Antineoplastic activity against mouse Colon 26 cells allografted in CDF1 mouse assessed as survival at 0.39 mg/kg qd for 9 days; type: functional, organism-based; set-up: dose 0.39 mg/kg
P388 [6] = experiment: Antineoplastic activity against mouse P388 cells allografted in CDF1 mouse assessed as survival at 0.12 mg/kg qd for 9 days; type: functional, organism-based; set-up: dose 0.12 mg/kg
P388 [7] = experiment: Antineoplastic activity against mouse P388 cells allografted in CDF1 mouse assessed as survival at 0.06 mg/kg qd for 9 days; type: functional, organism-based; set-up: dose 0.06 mg/kg
P388 [8] = experiment: Antineoplastic activity against mouse P388 cells allografted in CDF1 mouse at 0.5 mg/kg qd for 9 days relative to control; type: functional
B16 [9] = experiment: Antineoplastic activity against mouse B16 cells allografted in BDF1 mouse assessed as survival at 1 mg/kg qd for 9 days; type: functional, organism-based; set-up: dose 1 mg/kg
L1210 [10] = experiment: Antineoplastic activity against mouse L1210 cells allografted in CDF1 mouse assessed as survival at 1 mg/kg qd for 9 days; type: functional, organism-based; set-up: dose 1 mg/kg
Colon 26 [11] = experiment: Antineoplastic activity against mouse Colon 26 cells allografted in CDF1 mouse assessed as survival at 0.69 mg/kg qd for 9 days; type: functional, organism-based; set-up: dose 0.69 mg/kg
P388 [12] = experiment: Antineoplastic activity against mouse P388 cells allografted in CDF1 mouse at 0.12 mg/kg qd for 9 days relative to control; type: functional
P388 [13] = experiment: Antineoplastic activity against mouse P388 cells allografted in CDF1 mouse assessed as survival at 1 mg/kg qd for 9 days; type: functional, organism-based; set-up: dose 1 mg/kg
L1210 [14] = experiment: Antineoplastic activity against mouse L1210 cells allografted in CDF1 mouse at 2 mg/kg qd for 9 days relative to control; type: functional
P388 [15] = experiment: Antineoplastic activity against mouse P388 cells allografted in CDF1 mouse at 2 mg/kg qd for 9 days relative to control; type: functional
B16 [16] = experiment: Antineoplastic activity against mouse B16 cells allografted in BDF1 mouse assessed as survival at 2 mg/kg qd for 9 days; type: functional, organism-based; set-up: dose 2 mg/kg
Colon 26 [17] = experiment: Antineoplastic activity against mouse Colon 26 cells allografted in CDF1 mouse at 1.08 mg/kg qd for 9 days relative to control; type: functional
L1210 [18] = experiment: Antineoplastic activity against mouse L1210 cells allografted in CDF1 mouse assessed as survival at 4 mg/kg qd for 9 days; type: functional, organism-based; set-up: dose 4 mg/kg
L1210 [19] = experiment: Antineoplastic activity against mouse L1210 cells allografted in CDF1 mouse at 10.8 mg/kg qd for 9 days relative to control; type: functional
L1210 [20] = experiment: Antineoplastic activity against mouse L1210 cells allografted in CDF1 mouse at 1 mg/kg qd for 9 days relative to control; type: functional
L1210 [21] = experiment: Antineoplastic activity against mouse L1210 cells allografted in CDF1 mouse at 18 mg/kg qd for 9 days relative to control; type: functional
P388 [22] = experiment: Antineoplastic activity against mouse P388 cells allografted in CDF1 mouse assessed as survival at 0.5 mg/kg qd for 9 days; type: functional, organism-based; set-up: dose 0.5 mg/kg
B16 [23] = experiment: Antineoplastic activity against mouse B16 cells allografted in BDF1 mouse at 2 mg/kg qd for 9 days relative to control; type: functional
B16 [24] = experiment: Antineoplastic activity against mouse B16 cells allografted in BDF1 mouse at 0.25 mg/kg qd for 9 days relative to control; type: functional
P388 [25] = experiment: Antineoplastic activity against mouse P388 cells allografted in CDF1 mouse at 0.25 mg/kg qd for 9 days relative to control; type: functional
B16 [26] = experiment: Antineoplastic activity against mouse B16 cells allografted in BDF1 mouse at 1 mg/kg qd for 9 days relative to control; type: functional
P388 [27] = experiment: Antineoplastic activity against mouse P388 cells allografted in CDF1 mouse assessed as survival at 2 mg/kg qd for 9 days; type: functional, organism-based; set-up: dose 2 mg/kg
L1210 [28] = experiment: Antineoplastic activity against mouse L1210 cells allografted in CDF1 mouse assessed as survival at 18 mg/kg qd for 9 days; type: functional, organism-based; set-up: dose 18 mg/kg
P388 [29] = experiment: Antineoplastic activity against mouse P388 cells allografted in CDF1 mouse assessed as survival at 0.25 mg/kg qd for 9 days; type: functional, organism-based; set-up: dose 0.25 mg/kg
Colon 26 [30] = experiment: Antineoplastic activity against mouse Colon 26 cells allografted in CDF1 mouse assessed as survival at 1.08 mg/kg qd for 9 days; type: functional, organism-based; set-up: dose 1.08 mg/kg
P388 [31] = experiment: Antineoplastic activity against mouse P388 cells allografted in CDF1 mouse at 1 mg/kg qd for 9 days relative to control; type: functional
B16 [32] = experiment: Antineoplastic activity against mouse B16 cells allografted in BDF1 mouse at 0.5 mg/kg qd for 9 days relative to control; type: functional
Colon 26 [33] = experiment: Antineoplastic activity against mouse Colon 26 cells allografted in CDF1 mouse at 0.69 mg/kg qd for 9 days relative to control; type: functional
L1210 [34] = experiment: Antineoplastic activity against mouse L1210 cells allografted in CDF1 mouse assessed as survival at 2 mg/kg qd for 9 days; type: functional, organism-based; set-up: dose 2 mg/kg
P388 [35] = experiment: Antineoplastic activity against mouse P388 cells allografted in CDF1 mouse at 0.06 mg/kg qd for 9 days relative to control; type: functional
L1210 [36] = experiment: Antineoplastic activity against mouse L1210 cells allografted in CDF1 mouse at 4 mg/kg qd for 9 days relative to control; type: functional

O=C1c2c(O)ccc(O)c2C(=O)c2c(NCCNCCO)ccc(NCCNCCO)c21 [MITOXANTRONE]
Activity (B16 [1]): Active
Activity (B16 [2]): Active
Activity (L1210 [3]): Active
T/C (Colon 26 [4]): 259%
Activity (Colon 26 [5]): Active
Activity (P388 [6]): Active
Activity (P388 [7]): Active
T/C (P388 [8]): 305%
Activity (B16 [9]): Active
Activity (L1210 [10]): Active
Activity (Colon 26 [11]): Active
T/C (P388 [12]): 210%
Activity (P388 [13]): Active
T/C (L1210 [14]): 198%
T/C (P388 [15]): 230%
Activity (B16 [16]): Active
T/C (Colon 26 [17]): 353%
Activity (L1210 [18]): Active
T/C (L1210 [19]): 261%
T/C (L1210 [20]): 163%
T/C (L1210 [21]): 308%
Activity (P388 [22]): Active
T/C (B16 [23]): 231%
T/C (B16 [24]): 186%
T/C (P388 [25]): 224%
T/C (B16 [26]): 342%
Activity (P388 [27]): Active
Activity (L1210 [28]): Active
Activity (P388 [29]): Active
Activity (Colon 26 [30]): Active
T/C (P388 [31]): 381%
T/C (B16 [32]): 299%
T/C (Colon 26 [33]): 305%
Activity (L1210 [34]): Active
T/C (P388 [35]): 192%
T/C (L1210 [36]): 256%
